# In patent US7288566B2, “N-hydroxyformamidine derivatives” (Taisho Pharmaceutical Co., Ltd., priority 2002, dated 2007):
# pIC50: −log10 of the molar value.
# Molecular target: Human Kidney Microsome-derived 20-HETE-producing Enzyme
# Experiment: Inhibitory effect against human kidney microsome-derived 20-HETE-producing enzyme
# Type: biochemical
# Conditions: human kidney microsomal fraction, tritium-arachidonic acid substrate, NADPH, 37° C. for 1.5 hours, pH 7.4; read-out: IC50 (50% inhibition of 20-HETE production)
# Method: Inhibitory Effect Against Human Kidney Microsome-derived 20-HETE-producing Enzyme
# The compounds listed in the table above were tested for their inhibitory effect against 20-HETE production.
# This test was performed as described in J. Pharmacol. Exp. Ther., vol. 268, p. 474, 1994.
# A test drug solution adjusted with DMSO to 1 μM was added to 50 mM 3-morpholinopropanesulfonate (MOPS) buffer (pH 7.4) containing 5 mM magnesium chloride and 1 mM ethylenediaminetetraacetic acid disodium salt (EDTA). The resulting mixture was further supplemented with a human kidney microsomal fraction (Human Cell Culture Center, Anatomic Gift Foundation) as an enzyme source, [5,6,8,9,11,12,14,15]tritium-arachidonic acid as a substrate, and NADPH as a coenzyme, followed by reaction at 37° C. for 1.5 hours. After addition of formic acid to stop the reaction, the reaction mixture was supplemented with acetonitrile (final concentration: 50%). The level of 20-HETE production was measured by high performance liquid chromatography using an ODS column (Biosil C18, BioRad Laboratories) and a radioisotope detector. Assuming that the level of 20-HETE production in the absence of a test compound was set to 100%, the concentration required for the test compound to cause 50% inhibition of 20-HETE production was calculated (IC50 value).
structure (smiles),measurement,value
"CN(C)CC(C)(C)CCc1ccc(N/C=N/O)cc1 [Example 1, N-[4-(4-N,N-dimethylamino-3,3-dimethyl-butyl)phenyl]-N′-hydroxyformamidine]",pIC50,7.98
